This is an account of results in PubChem BioAssay (NCI).

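How tested: cells in 96-well plates exposed to compound for 48 hours at five concentrations. GI50 = concentration required for 50% inhibition of growth. Definition used: TGI = concentration required for complete inhibition of growth.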

Test systems include COLO 205 colon; NCI-H23 lung; NCI/ADR-RES ovarian; OVCAR-4 ovarian; SK-MEL-28 melanoma; UO-31 renal; A498 renal; HOP-62 NSCLC; NCI-H226 lung; RPMI-8226 leukemia.
Holding throughout (assay): NCI anticancer screen, dose series, 48 h

On to `COc1ccc(-c2ccc(-c3ccc(C(=N)N)nc3)s2)cc1`, for which the GI50 with COLO 205 colon was 1.89 µM; in the assay on NCI-H23 lung it was 1.84 µM; with NCI/ADR-RES ovarian, 1.94 µM; in the assay with OVCAR-4 ovarian, 1.79 µM; in the assay with SK-MEL-28 melanoma it was 1.75 µM; with UO-31 renal, 1.64 µM. Moreover, the TGI is 3.92 µM in the assay with COLO 205 colon; 3.46 µM with NCI-H23 lung; 3.75 µM in the assay on NCI/ADR-RES ovarian; 3.3 µM with OVCAR-4 ovarian; 3.27 µM in the assay on SK-MEL-28 melanoma; 3.08 µM with UO-31 renal.

Consider `COc1ccc2c(c1)CC[C@@H]1[C@@H]2CC[C@]2(C)C(=O)C3(CCCCC3)C[C@@H]12`, for which the GI50 with A498 renal, in the assay with COLO 205 colon, in the assay with HOP-62 NSCLC, in the assay on NCI-H226 lung, in the assay on NCI-H23 lung and in the assay with NCI/ADR-RES ovarian was over 100 µM in each case. The GI50 in the assay on OVCAR-4 ovarian, with RPMI-8226 leukemia, in the assay with SK-MEL-28 melanoma and in the assay on UO-31 renal was over 100 µM in each case. For the same compound, the TGI in the assay on A498 renal, in the assay with COLO 205 colon, with HOP-62 NSCLC, with NCI-H226 lung, with NCI-H23 lung and in the assay with NCI/ADR-RES ovarian was over 100 µM each time. Further, the TGI in the assay with OVCAR-4 ovarian, with RPMI-8226 leukemia, in the assay with SK-MEL-28 melanoma and with UO-31 renal was over 100 µM each time.

With `N#CC(C#N)=CN1CCN(C(=O)c2ccco2)C1=S`, the GI50 with COLO 205 colon is 16.5 µM; in the assay on NCI-H23 lung, 5.78 µM; in the assay with OVCAR-4 ovarian, 20.1 µM; in the assay with RPMI-8226 leukemia, 4.53 µM; in the assay on SK-MEL-28 melanoma, 12.5 µM; with UO-31 renal, 10.5 µM. Also, the TGI with COLO 205 colon is 70.5 µM; with NCI-H23 lung, 22.5 µM; in the assay with OVCAR-4 ovarian, 46 µM; in the assay with RPMI-8226 leukemia, over 100 µM; with SK-MEL-28 melanoma, over 100 µM; in the assay on UO-31 renal it was 30.1 µM.

As for `O=C(O)C(=C\c1ccc2c(c1)OCO2)/C(=C/c1ccc2c(c1)OCO2)C(=O)O`, the TGI in the assay on A498 renal, in the assay on COLO 205 colon, in the assay on HOP-62 NSCLC, with NCI-H226 lung, with NCI-H23 lung and in the assay on NCI/ADR-RES ovarian was over 100 µM throughout. Also, the TGI in the assay on OVCAR-4 ovarian, with RPMI-8226 leukemia, in the assay on SK-MEL-28 melanoma and with UO-31 renal was over 100 µM throughout.

Consider `Cc1c(C#N)c2nnn(C)c(=O)n2c1-c1ccccc1`, for which the TGI with A498 renal, with HOP-62 NSCLC, in the assay on NCI-H226 lung, in the assay with NCI-H23 lung, with NCI/ADR-RES ovarian and with OVCAR-4 ovarian was over 100 µM throughout. In addition, the TGI in the assay on RPMI-8226 leukemia, in the assay with SK-MEL-28 melanoma and in the assay with UO-31 renal was over 100 µM throughout.
